In patent US5854050A, “Enzyme with protease activity” (Novo Nordisk A/S, priority 1993, dated 1998):

Assays:
[1] = test system: Ground defatted feed quality soy; experiment: Two-step hydrolysis of feed soy (°Brix, osmolality, DH); type: biochemical
Method: Ground defatted feed quality soy was mixed with deionised water under the conditions described below. The hydrolysis was carried out in two steps in order to simulate the pH conditions in the stomach and the small intestine.
70 g ground defatted soy
Time 1st step 180 minutes
Enzymes 1st step I) Pepsin 1.92 g
II) I + Bio-Feed Pro 3.0 L
2nd step I) Pancreatin 6 g
The enzymes were added at start 0 minutes. During the hydrolysis ° Brix and osmolality were measured to follow the reaction course. According to Adler-Nissen (1986) the osmolality values can be used for calculation of the Degree of Hydrolysis (DH) by the following equation: [formula] Where Δ is the increase in osmolality mOSM, S % is protein concentration, ω is the calibration factor for the osmometer, htot is the total number of peptide bonds in the protein substrate (meqv/g protein), and fosm is the factor for converting % to g/kg H2 O. [formula]

Hen Lysozyme = experiment: Cleaning of contact lenses: removal of denatured 14C-lysozyme in 3% H2O2, pH 3.5; type: biochemical; details: 3% H2O2, pH 3.5, four hours, 25° C.; FIG. 7
Excerpt: The experimental protocol was as follows:
Materials: Hen Lysozyme, L-6878 from Sigma "Rythmic" contact lens' from Essilor (Type II lens, high-water, nonionic) Protease I produced as described above Protease II produced as described above Porcine pepsin, P-6887 from Sigma Subtilisin carlsberg, Clear-Lens Pro® (Novo Nordisk A/S).
Standard buffer: 0.05M Na2 HPO4, 0.9% NaCl pH 7.5
Scintillation liquid, Optiphase "HiSafe III"
Hen lysozyme from Sigma was labelled with ^14 C through reductive methylation and purified.
A solution was made containing 0.05M Na2 HPO4, 0.9% NaCl and 0.2 mg/ml lysozyme pH 7.5. An amount of ^14 C-labelled lysozyme was added so the CPM (Counts Per Minute) is approximately 200.000. 1.0 ml of the solution was transferred to a scintillation glass. The contact lens was added and the glass placed in a water-bath at 85° C. for 30 minutes.
The contact lens was then rinsed in 3×3 ml reagent buffer. It was quartered with a scalpel. Each quarter was transferred to a new scintillation glass containing 3 ml of the reagent buffer. […]
The reaction took place over four hours at 25° C. […] 12 ml scintillation liquid was added and CPM was measured in a Packard 2500 TR liquid scintillation counter. […]
The relative amount of lysozyme removed from the lens during the combined disinfection/cleaning was calculated from the mass balance of each quarter lens. […]

[2] = STEP II (pH 6.5, with Pancreatin), 180 min

Pepsin
mOSM ([1]; STEP I (pH 4.0, 40° C.), 0 min): 347 mOSM
mOSM INCREASE ([1]; STEP I (pH 4.0, 40° C.), 0 min): 0 mOSM
°BRIX ([1]; STEP I (pH 4.0, 40° C.), 0 min): 5.09 °BRIX
% DH (Degree of Hydrolysis) ([1]; STEP I (pH 4.0, 40° C.), 0 min, calculated from osmolality): 0%
% DH (Degree of Hydrolysis) ([1]; STEP I, 5 min): 2.86%
mOSM ([1]; STEP I, 5 min): 362 mOSM
mOSM INCREASE ([1]; STEP I, 5 min): 15 mOSM
°BRIX ([1]; STEP I, 5 min): 6.135 °BRIX
% DH (Degree of Hydrolysis) ([1]; STEP I, 10 min): 2.86%
mOSM ([1]; STEP I, 10 min): 362 mOSM
mOSM INCREASE ([1]; STEP I, 10 min): 15 mOSM
°BRIX ([1]; STEP I, 10 min): 6.505 °BRIX
% DH (Degree of Hydrolysis) ([1]; STEP I, 15 min): 2.57%
mOSM ([1]; STEP I, 15 min): 360.5 mOSM
mOSM INCREASE ([1]; STEP I, 15 min): 13.5 mOSM
°BRIX ([1]; STEP I, 15 min): 6.625 °BRIX
% DH (Degree of Hydrolysis) ([1]; STEP I, 30 min): 3.14%
mOSM ([1]; STEP I, 30 min): 363.5 mOSM
mOSM INCREASE ([1]; STEP I, 30 min): 16.5 mOSM
°BRIX ([1]; STEP I, 30 min): 6.9275 °BRIX
% DH (Degree of Hydrolysis) ([1]; STEP I, 45 min): 3.62%
mOSM ([1]; STEP I, 45 min): 366 mOSM
mOSM INCREASE ([1]; STEP I, 45 min): 19 mOSM
°BRIX ([1]; STEP I, 45 min): 7.345 °BRIX
% DH (Degree of Hydrolysis) ([1]; STEP I, 60 min): 4.00%
mOSM ([1]; STEP I, 60 min): 368 mOSM
mOSM INCREASE ([1]; STEP I, 60 min): 21 mOSM
°BRIX ([1]; STEP I, 60 min): 7.745 °BRIX
% DH (Degree of Hydrolysis) ([1]; STEP I, 90 min): 4.47%
mOSM ([1]; STEP I, 90 min): 370.5 mOSM
mOSM INCREASE ([1]; STEP I, 90 min): 23.5 mOSM
°BRIX ([1]; STEP I, 90 min): 8.175 °BRIX
% DH (Degree of Hydrolysis) ([1]; STEP I, 120 min): 4.95%
mOSM ([1]; STEP I, 120 min): 373 mOSM
mOSM INCREASE ([1]; STEP I, 120 min): 26 mOSM
°BRIX ([1]; STEP I, 120 min): 8.695 °BRIX
% DH (Degree of Hydrolysis) ([1]; STEP I, 180 min): 6.57%
mOSM ([1]; STEP I, 180 min): 381.5 mOSM
mOSM INCREASE ([1]; STEP I, 180 min): 34.5 mOSM
°BRIX ([1]; STEP I, 180 min): 9.195 °BRIX
mOSM [1, 2]: 468 mOSM
mOSM INCREASE [1, 2]: 0 mOSM
°BRIX [1, 2]: 12.965 °BRIX
mOSM ([1]; STEP II, 185 min): 996 mOSM
mOSM INCREASE ([1]; STEP II, 185 min): 528 mOSM
°BRIX ([1]; STEP II, 185 min): 15.135 °BRIX
mOSM ([1]; STEP II, 190 min): 1009 mOSM
mOSM INCREASE ([1]; STEP II, 190 min): 541 mOSM
°BRIX ([1]; STEP II, 190 min): 15.4025 °BRIX
mOSM ([1]; STEP II, 195 min): 1015.5 mOSM
mOSM INCREASE ([1]; STEP II, 195 min): 547.5 mOSM
°BRIX ([1]; STEP II, 195 min): 15.637 °BRIX
mOSM ([1]; STEP II, 210 min): 1037.5 mOSM
mOSM INCREASE ([1]; STEP II, 210 min): 569.5 mOSM
°BRIX ([1]; STEP II, 210 min): 16.135 °BRIX
mOSM ([1]; STEP II, 225 min): 1054.5 mOSM
mOSM INCREASE ([1]; STEP II, 225 min): 586.5 mOSM
°BRIX ([1]; STEP II, 225 min): 16.415 °BRIX
mOSM ([1]; STEP II, 240 min): 1068.5 mOSM
mOSM INCREASE ([1]; STEP II, 240 min): 600.5 mOSM
°BRIX ([1]; STEP II, 240 min): 16.705 °BRIX
mOSM ([1]; STEP II, 270 min): 1087.5 mOSM
mOSM INCREASE ([1]; STEP II, 270 min): 619.5 mOSM
°BRIX ([1]; STEP II, 270 min): 17.075 °BRIX
mOSM ([1]; STEP II, 300 min): 1111 mOSM
mOSM INCREASE ([1]; STEP II, 300 min): 643 mOSM
°BRIX ([1]; STEP II, 300 min): 17.437 °BRIX
mOSM ([1]; STEP II, 360 min): 1148 mOSM
mOSM INCREASE ([1]; STEP II, 360 min): 680 mOSM
°BRIX ([1]; STEP II, 360 min): 18.075 °BRIX

B1: Subtilisin carlsberg (protein, UniProt P00780 106-379, looked up)
Subtilisin Carlsberg: AQTVPYGIPLIKADKVQAQGFKGANVKVAVLDTGIQASHPDLNVVGGASFVAGEAYNTDGNGHGTHVAGTVAALDNTTGVLGVAPSVSLYAVKVLNSSGSGSYSGIVSGIEWATTNGMDVINMSLGGASGSTAMKQAVDNAYAKGVVVVAAAGNSGSSGNTNTIGYPAKYDSVIAVGAVDSNSNRASFSSVGAELEVMAPGAGVYSTYPTNTYATLNGTSMASPHVAGAAALILSKHPNLSASQVRNRLSSTATYLGSSFYYGKGLINVEAAAQ
notes: Subtilisin carlsberg, Clear-Lens Pro® (Novo Nordisk A/S), presently used serin protease for contact lens cleaning
performance in contact lens cleaning (lysozyme removed) (Hen Lysozyme): poor performance
